Experimental data: patent US10842892B2, “Methods and apparatus for synthesizing imaging agents, and intermediates thereof” (Lantheus Medical Imaging, Inc., priority 2010, dated 2020)

Legend:
[1] = system: blood brain barrier (BBB); experiment: brain uptake with and without blood brain barrier disruption; type: in vivo, rat
Description: Male Sprague-Dawley rats were anesthetized with sodium pentobarbital and the left external carotid artery was cannulated close to the internal and external carotid bifurcation. Using saline as control and 25% D-mannitol as hypertonic solution, each were perfused retrogradely in six animals (0.3 mL/kg/sec) for 30 seconds. Two minutes later, ˜1 mCi imaging agent 1 was injected via tail vein and the brain was imaged with a microPET camera for 30 minutes. […] Following completion of imaging, the brain was harvested, photographed and dissected into left and right hemispheres and cerebellum. The tissue content of imaging agent 1 radioactivity was measured by gamma counter and Evans blue levels were determined by fluorescence method for calculation of the % injected dose/gram tissue and μg Evan blue/gram tissue, respectively.

[2] = system: myocardial ischemia; experiment: imaging agent 1 and ^82Rb PET versus ^99mTc sestamibi SPECT, perfusion defect assessment (phase II); type: in vivo, human
Description: Twenty-six patients (20 men) who underwent ^99mTc sestamibi SPECT and imaging agent 1 PET within 6 months at a single center in a phase II clinical trial were compared to 23 patients (matched by summed difference score (SDS) on SPECT) who underwent ^99mTc sestamibi SPECT and ^82Rb PET (25-50 mCi) within 6 months without change in clinical state. PET was performed with imaging agent 1 at rest (2.3-3.9 mCi) followed 60 min or 24 h later with exercise or adenosine stress (7.3-8.6 mCi). Perfusion defects on SPECT and PET were assessed by computer-assisted visual interpretation, using the standard 17 segment, 5 point-scoring model (0=normal; 4=absent uptake). The extent and severity of ischemia (SDS) was derived from the difference between summed stress score (SSS) and summed rest scores (SRS).
Twenty six patients (20 men) underwent SPECT and PET within 6-months. PET was performed with imaging agent 1 at rest (2.3-3.9 mCi) followed 60 min (n=18) or 24 h (n=8) later with exercise (n=16) or adenosine (n=10) stress (7.3-8.6 mCi). Image quality of SPECT and PET was consensually assessed by 2 independent blinded readers and graded as excellent, good, or fair. Stress and rest perfusion defects on SPECT and PET were assessed by the same readers by computer-assisted visual interpretation, using the standard 17 segment, 5 point-scoring model (0=normal; 4=absent uptake). The extent and severity of ischemia (summed difference score (SDS)) was derived from the difference between summed stress (SSS) and summed rest scores (SRS). Image quality with PET was excellent in 24 and good in 2 patients. In contrast, there were 7 excellent, 18 good, and 1 fair quality study, p<0.001 by SPECT. In 14 patients with abnormal SPECT (SSS≥4), mean SDS was greater with PET than with SPECT (9.6±1.8 vs. 5.4±0.7, p=0.02). In all 12 patients with normal SPECT (SSS<4), SDS was zero by PET and SPECT.

[3] = system: stress induced myocardial perfusion abnormalities; experiment: rest-stress imaging agent 1 PET versus Tc-99m Sestamibi SPECT MPI, single center; type: in vivo, human; settings: myocardial segments supplied by diseased coronary arteries, 13 patients
Description: Thirteen patients, from a single center, underwent rest-stress Tc-99m Sestamibi SPECT MPI, rest-stress imaging agent 1 PET MPI and coronary angiography. In each patient, 17 myocardial segments were visually scored for rest and stress images by independent observers who were blinded to all other results. For each patient, summed stress scores (SSS), summed rest scores (SRS), and summed difference scores (SDS) were determined from segmental scores. Percent narrowing in each coronary artery was evaluated blindly and 70% luminal diameter narrowing was considered significant.

[4] = 25% D-mannitol compared to saline control
[5] = matched group of 13 patients with abnormal SPECT (^82Rb PET group)

| SMILES | increase in uptake, cerebellum [1, 4] [%] | increase in uptake, left hemisphere [1, 4] [%] | increase in uptake, right hemisphere [1, 4] [%] | Brain uptake, cerebellum ([1]; BBBD (25% D-mannitol) rats) [µg/g] | Brain uptake, left hemisphere ([1]; BBBD (25% D-mannitol) rats) [µg/g] | Brain uptake, right hemisphere ([1]; BBBD (25% D-mannitol) rats) [µg/g] | Brain uptake, cerebellum ([1]; control (saline) rats) [µg/g] | Brain uptake, left hemisphere ([1]; control (saline) rats) [µg/g] | Brain uptake, right hemisphere ([1]; control (saline) rats) [µg/g] | mean SDS (summed difference score) [2, 5] | differences in SDS, PET compared to SPECT ([2]; patients with normal SPECT (SSS<4)) | SDS ([2]; 12 patients with normal SPECT (SSS<4)) | mean SDS (summed difference score) ([2]; 14 patients with abnormal SPECT (SSS≥4)) | image quality excellent, number of patients ([2]; 26 patients, 2 blinded readers) | image quality fair, number of patients ([2]; 26 patients, 2 blinded readers) | image quality good, number of patients ([2]; 26 patients, 2 blinded readers) | SDS [3] | SRS [3] | SSS [3] |
| --- | --- | --- | --- | --- | --- | --- | --- | --- | --- | --- | --- | --- | --- | --- | --- | --- | --- | --- | --- |
| Cc1cc(-c2ccc(/N=N/c3ccc4c(S(=O)(=O)O)cc(S(=O)(=O)O)c(N)c4c3O)c(C)c2)ccc1/N=N/c1ccc2c(S(=O)(=O)O)cc(S(=O)(=O)O)c(N)c2c1O [Evans blue] | 186 | 633 | 216 | 83 ± 12 | 154 ± 13 | 60 ± 8 | 29 ± 4 | 21 ± 2 | 19 ± 2 |  |  |  |  |  |  |  |  |  |  |
| [82Rb+].[Cl-] [^82Rb, rubidium-82 (^82Rb) chloride] |  |  |  |  |  |  |  |  |  | 4.9±1.4 | no differences |  |  |  |  |  |  |  |  |
| [C-]#[N+]CC(C)(C)OC.[C-]#[N+]CC(C)(C)OC.[C-]#[N+]CC(C)(C)OC.[C-]#[N+]CC(C)(C)OC.[C-]#[N+]CC(C)(C)OC.[C-]#[N+]CC(C)(C)OC.[Tc] [^99mTc sestamibi] |  |  |  |  |  |  |  |  |  | 4.6±1.3 |  | zero | 5.4±0.7 | 7 | 1 | 18 | 5.4 ± 4.2 | 3.1 ± 3.3 | 8.6 ± 5.8 |
